Earlier results as cited in US20100022600A1, “METHODS AND COMPOSITIONS FOR TREATING CENTRAL NERVOUS SYSTEM TUMORS” (priority 2006, published 2010).

Columns and labels:
BT4Cn rat glioma cells = conditions: Carcinogenesis 2001; 22: 1747-55; cited from earlier work
C6 cells = conditions: J Neurochem 2002; 81: 1052-60; cited from earlier work
cholesterol biosynthesis = conditions: PPARγ-independent; Diabetes 1999; 48: 254-60; cited from earlier work
acyl-CoA synthetase = conditions: PPARγ-independent; J Biol Chem 2001; 276: 33736-40; cited from earlier work

SMILES: O=C(Nc1ccccc1)c1cc([N+](=O)[O-])ccc1Cl [GW9662]
- effect on growth inhibition by PPARγ agonists (BT4Cn rat glioma cells): abolished

SMILES: CC1(COc2ccc(CC3SC(=O)NC3=O)cc2)CCCCC1 (stereo not shown) [ciglitazone, 5-[4-[(1-methylcyclohexyl)methoxy]benzyl]thiazolidine-2,4-dione]
- redifferentiation of C6 cells (C6 cells): increased redifferentiation

SMILES: Cc1c(C)c2c(c(C)c1O)CCC(C)(COc1ccc(CC3SC(=O)NC3=O)cc1)O2 (single isomer, unassigned; (+)) [troglitazone, (+)-5 [[4-[(3,4-dihydro-6-hydroxy-2,5,7,8-tetramethyl-2H-1-benzopyran-2-yl)methoxy]phenyl]methyl]-2,4thiazolidinedione]
- cholesterol biosynthesis (cholesterol biosynthesis): inhibit
- acyl-CoA synthetase (acyl-CoA synthetase): inhibit
